In PMC3175392, “Noninvasive In Vivo Quantification of Neutrophil Elastase Activity in Acute Experimental Mouse Lung Injury” (International Journal of Molecular Imaging, 2011):
pIC50: −log10 of the molar value. Counter-ions that a name gives are not always drawn.

Tests used:
human PR3 = target: T1, human PR3 (Homo sapiens, UniProt P24158); assay: Inhibition of NE680 cleavage by human PR3; format: biochemical; settings: NE680 0.5 μM as substrate; 30 min preincubation of enzyme with inhibitor, room temperature; read-out: IC50 on NE680 activation by human PR3
T1 construct: human neutrophil PR3 from Athens Research and Technology (Athens, GA); purchased Athens Research and Technology (Athens, GA); host or cells: human neutrophils
T1 sequence (P24158 28-256): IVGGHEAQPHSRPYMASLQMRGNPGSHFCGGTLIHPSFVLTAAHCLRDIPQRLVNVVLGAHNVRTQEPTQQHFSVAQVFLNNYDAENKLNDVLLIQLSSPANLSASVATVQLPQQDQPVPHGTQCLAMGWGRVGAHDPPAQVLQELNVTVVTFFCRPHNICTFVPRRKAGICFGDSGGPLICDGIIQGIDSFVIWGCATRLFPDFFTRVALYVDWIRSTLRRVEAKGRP
Experimental: Activation and protease selectivity of NE680 were determined with NE and closely related enzymes including PR3, Cat G, Cat B, and MMP-9. The assays were performed with 0.05 μM of enzyme and 0.5 μM NE680 in the optimized buffer and pH for each enzyme. Human NE was purchased from Innovative Research (Novi, MI), recombinant mouse NE, mouse Cat B, and active mouse Cat C from R and D Systems (Minneapolis, MN), human neutrophil PR3 from Athens Research and Technology (Athens, GA), and human neutrophil Cat G and recombinant human MMP-9 from BIOMOL International (Plymouth Meeting, PA). […] All the reactions were monitored at various time points at excitation/emission wavelengths of 663/690 nm with a cutoff at 665 nm using a fluorescence plate reader (Molecular Devices, San Leandro, CA). The released fluorescence is shown after subtracting background fluorescence of the agent without enzyme.
The IC50 against human NE and human PR3 were determined as described above using NE680 (0.5 μM). […]

NE [1] = target: T2, NE (Mus musculus, UniProt Q3UP87); assay: NE680 activation ex vivo in lung sections; settings: 1 μM NE680, 37°C, 5 h
T2 construct: from tissue; host or cells: lung of LPS/fMLP-challenged CD-1 mice (frozen sections or in vivo)
T2 sequence (Q3UP87 27-265): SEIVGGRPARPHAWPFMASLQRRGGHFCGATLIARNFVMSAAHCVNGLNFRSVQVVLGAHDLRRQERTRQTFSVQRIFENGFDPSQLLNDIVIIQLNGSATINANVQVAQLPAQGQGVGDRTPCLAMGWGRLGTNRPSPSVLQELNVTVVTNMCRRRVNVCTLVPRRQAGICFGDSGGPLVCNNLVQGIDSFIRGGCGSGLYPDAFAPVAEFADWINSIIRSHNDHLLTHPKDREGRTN
From the text: To validate the specificity of NE680 activation by NE present in lungs, mice with lung inflammation and control healthy mice (which had not received NE680) were euthanized by CO2 inhalation and lungs were removed and snap frozen in OCT. […] Fluorescence, as a measure of agent activation, was captured under fluorescence microscopy using appropriate filters (Zeiss Axioskop 2 MOT Plus). DAPI was used as a nuclear counterstain.

neutrophil influx = assay: Lung histology (H and E) after in vivo imaging, neutrophil influx; parameters: species or system mouse; settings: single treatment 5 mg/kg i.n. 18 h after LPS; H and E sections
NE [2] = target: T2, NE; assay: In vivo FMT imaging of NE680 activation in LPS/fMLP acute lung injury
From the text: Acute lung inflammation was induced in mice according to published protocols with slight modifications. Male CD-1 mice were purchased from Charles River Laboratories (Wilmington, MA) and used when they reached 8–10 weeks of age. Mice were housed in environmentally controlled specific-pathogen-free conditions with water and low-fluorescence mouse chow (Harlan Teklad, Madison, WI). All animal experimental procedures were approved by PerkinElmer's Institutional Animal Care and Use Committee and were in accordance with veterinarian requirements. On day 1, mice were challenged intranasally (i.n.) with 100 μg of LPS (E. coli 111 : B4, Sigma, St. Louis, MO) solubilized in 40 μL PBS or PBS only. Eighteen hours later, mice received an intranasal instillation of the chemotactic peptide N-formyl-met-leu-phe (fMLP, Sigma, St. Louis, MO) at 200 nM in 40 μL PBS together with 4 nmoles of NE680.
For in vivo imaging, mice were first depilated using Nair and placed in a fluorescence molecular tomography (FMT) 2500 system (PerkinElmer, Boston, MA) imaging chamber to which is delivered a controlled amount of isoflurane/oxygen mixture keeping the mice anesthetized. Three-dimensional regions of interest (ROIs) were drawn around the chest area applying a universal threshold, equal to 40% of the mean concentration value of fluorescence in the LPS/fMLP mice (in nM). The total amount (in picomole) of fluorochrome was automatically calculated relative to internal standards generated with known concentrations of the appropriate fluorochrome. For each study, the mean fluorescence of the LPS/fMLP group was equaled to 100%, and then each mouse in that study was normalized accordingly. Shown are the grouped results of 3 studies, as the percentage of LPS/fMLP Lung Fluorescence (means ± S.E.M.).

[3] = Fluorescence biodistribution in excised organs; format: in vivo, mouse; settings: organs excised from 3 LPS/fMLP mice immediately after imaging, reflectance mode, mean fluorescence counts/energy
Experimental: Immediately following imaging, a cohort of mice were sacrificed (n = 3 per group), organs excised, and imaged in reflectance mode using the FMT 2500. The mean fluorescence intensity was measured after drawing an ROI around each organ. Data are expressed as mean fluorescence (in counts/energy) reported as means ± S.E.M.

Mouse plasma stability = format: in vitro ADME; settings: normal mouse plasma diluted 1:4 in PBS pH 7.40 with 1 mM EDTA, 37°C, 24 h; HPLC; data not shown
Experimental: The agent was incubated in normal mouse plasma (Innovative Research, Novi, MI) diluted 1 : 4 in PBS, pH 7.40 with 1 mM EDTA, at 37°C for 24 h. The stability of the agent was analyzed by HPLC.
(§1) HPLC analyses were performed on a Waters model 2695 (Waters Corporation, Milford, MA). The PDA, Waters model 2998, was set to scan from 225 nm to 800 nm. The wavelength corresponding to the absorbance maximum of the fluorophore, 675 nm, was extracted from the PDA trace. The fluorescence spectrophotometer was set to an excitation wavelength of 675 nm and emission was monitored at 693 nm. Samples were analyzed on a C4, 300 Å, 5 μm, 150 × 4.6 mm HPLC column (Phenomenex, Torrance, CA). The aqueous mobile phase contained 25 mM ammonium formate, pH 8.5. Samples were eluted with acetonitrile at a flow rate of 1 mL/min. A gradient of 15% to 85% organic provided sufficient resolution. Standards were prepared with NE680 (0–2.5 μM) in mouse plasma. Standard curves had correlation coefficients >0.98.

mouse NE = assay: In vitro activation and protease selectivity of NE680 (mouse NE versus related enzymes); format: biochemical; settings: at 5 h, 0.5 μM NE680, 0.05 μM enzyme, room temperature, optimized buffer for each enzyme
Experimental: Activation and protease selectivity of NE680 were determined with NE and closely related enzymes including PR3, Cat G, Cat B, and MMP-9. The assays were performed with 0.05 μM of enzyme and 0.5 μM NE680 in the optimized buffer and pH for each enzyme. Human NE was purchased from Innovative Research (Novi, MI), recombinant mouse NE, mouse Cat B, and active mouse Cat C from R and D Systems (Minneapolis, MN), human neutrophil PR3 from Athens Research and Technology (Athens, GA), and human neutrophil Cat G and recombinant human MMP-9 from BIOMOL International (Plymouth Meeting, PA). The reaction buffers were as follows: for human NE, 100 mM Tris (pH 7.5); for mouse NE, 50 mM Tris (pH 7.5), 1 M NaCl, 0.05% Brij-35; for Cat B, 25 mM MES (pH 5.0), 0.5 mM DTT (preactivation in 25 mM MES pH 5.0, 5 mM DTT for 15 min at room temperature); for MMP-9, 50 mM Tris (pH 7.5), 10 mM CaCl2, 150 mM NaCl, 0.05% Brij 35; for Cat G, 100 mM Tris (pH 7.5), 1.6 M NaCl; for human PR3, 100 mM Tris (pH 7.5), 500 mM NaCl. Mouse NE was activated by active mouse Cat C in 50 mM MES, 50 mM NaCl, pH5.5 at 37°C for 2 h. Reactions were carried out at room temperature in 250 μL in 96 well plates with black sides and bottom. All the reactions were monitored at various time points at excitation/emission wavelengths of 663/690 nm with a cutoff at 665 nm using a fluorescence plate reader (Molecular Devices, San Leandro, CA). The released fluorescence is shown after subtracting background fluorescence of the agent without enzyme.

[4] = Pharmacokinetics in CD-1 mice after i.v. injection; format: in vivo, mouse; settings: female CD-1 mice, 2 nmol i.v. bolus in PBS, n = 3 mice per time point, HPLC of plasma; data not shown
Experimental: Twenty-four female retired breeder CD-1 mice (age 12–16 weeks, Charles River Laboratories, Wilmington, MA) received a bolus intravenous (i.v.) injection of NE680 (2 nmol in PBS). Terminal blood samples (n = 3 mice per time point) were collected by cardiac puncture from each mouse (following carbon dioxide asphyxiation). Plasma was collected by centrifugation (15,000 rpm for 10 min at 4°C) in EDTA-containing tubes. Aliquots (50 μL) of each plasma sample were placed in Eppendorf tubes. Cold methanol (150 μL) was added and the tubes were vortexed followed by centrifugation at 12,000 rpm and 4°C for 10 minutes. Approximately 110 μL of the supernatants were transferred to HPLC vials for analysis. Studies were conducted in accordance with and approved by PerkinElmer's IACUC Institutional Animal Care and Use Committee guidelines.
as §1, with “Samples were eluted with acetonitrile at a flow rate of 1 mL/min. A gradient of 15% to 85% organic provided sufficient resolution. Standards were prepared with NE680 (0–2.5 μM) in mouse plasma. Standard curves had correlation coefficients >0.98.” left out

[5] = 10 μm frozen sections, fluorescence microscopy

CC(C)(C)C(=O)Oc1ccc(S(=O)(=O)Nc2ccccc2C(=O)NCC(=O)O)cc1 [sivelestat, N-{2-[({4-[(2,2-dimethylpropanoyl)oxy]phenyl}sulfonyl)amino]benzoyl} glycine sodium salt, reference compound]
pIC50 (human PR3): 6.15
suppression of NE680 activation in ALI lung sections (NE [1]; sivelestat 40 nM): significantly inhibited
suppression of NE680 activation in ALI lung sections (NE [1]; sivelestat 0.4 and 4 μM): almost completely blocking
effect on neutrophil influx into the lung (neutrophil influx): not inhibited
median concentration of lung fluorescence (NE [2]; ALI mice treated with sivelestat 5 mg/kg i.n. 15 min before fMLP and NE680, n = 12): 73 nM
lung fluorescence as percentage of LPS/fMLP group (NE [2]; ALI mice treated with sivelestat 5 mg/kg i.n. 15 min before fMLP and NE680, mean ± S.E.M., n = 12, P = 0.0144): 53.57 ± 10.34%

PMAVVQSVP [NE680]
NE680 signal in lungs relative to all other tissues [3]: 30- to 170 fold
fluorescence (agent activation) in lung sections from control mice (NE [1]; [5]): little or no apparent fluorescence
fluorescence (agent activation) in lung sections from mice with ALI (NE [1]; [5]): strong fluorescence
stability in mouse plasma (Mouse plasma stability): optically stable and remains quenched
average total fluorescence per lung (NE [2]; LPS/fMLP mice): ~ 100 pmol fluorescence/lung
magnitude of signal in positive control animals across studies (NE [2]; LPS/fMLP mice, range between studies): 30–190 pmols fluorescence/lung
average total fluorescence per lung (NE [2]; control mice): < 5 pmol fluorescence/lung
median concentration of lung fluorescence (NE [2]; healthy controls, n = 12, 4 nmoles NE680 i.n., FMT 5 h later): 0 nM
median concentration of lung fluorescence (NE [2]; mice with LPS/fMLP ALI, n = 16, 4 nmoles NE680 i.n., FMT 5 h later): 164 nM
cleavage by mouse NE relative to Cat G (mouse NE; human Cat G): > 10 fold
cleavage by mouse NE relative to MMP-9 (mouse NE; human MMP-9): > 30 fold
cleavage by mouse NE relative to Cat B (mouse NE; mouse Cat B): over 250 fold
half-life in plasma (t 1/2) [4]: 3 h
